The record followed here is publication PMC8802628, “Selective activation of PFKL suppresses the phagocytic oxidative burst” (Cell, 2021).

For assay [1], the target named is T1, recombinant NAMPT (Homo sapiens, UniProt P43490).
T1 construct: purchased BPS Bioscience 71276-1
The assay can be described thus: NAMPT activity assay. To be noted: 500 nM to 160 pM. The format is biochemical. Here is the method: NA-11 was diluted in ultra-pure water at concentrations between 500 nM to 160 pM, and preincubated with recombinant NAMPT for 30 min. NAMPT activity was measured using a fluorescence NAMPT Inhibitor Screening assay kit (BPS Bioscience).

In assay [2] the test system is human bronchial epithelial cells (HBECs). The assay can be described thus: Epithelial barrier tissue damage assay (FITC-dextran). The assay is classed as cell-based. To be noted: PMA-activated neutrophils on HBECs. Here is the method:
Human bronchial epithelial cells (HBECs) (4 × 10^4 in […] complete PneumaCult-Ex plus medium) were added to a HTS Transwell-96 permeable support plate (polyester membrane with a 0.4 μm pores) and immersed in receiver plates containing 150 μL of complete PneumaCult-Ex plus medium for 3 days. The medium on confluent monolayers was then replaced with RPMI medium containing neutrophils (4 × 10^4) in RPMI buffer that were previously treated with 5 μM NA-11, 100 μM apocynin, 5 μM NA-4, or DMSO vehicle and then activated with 100 nM PMA. The transwell plate was cultured in a new receiver plate containing 150 μL Hank’s balanced salt solution (HBSS) for 2 h. 10 μL of DMEM supplemented with 5% FBS and 2 mM L-glutamine were added to each well and the plate was incubated for additional 18 h. To measure the permeability of the epithelial barrier, FITC-dextran (200 μg/mL) and DNase-1 (22 Units/mL) were added to the apical side for 1 h. FITC-dextran in the receiver plate was measured (ex: 494 em: 521).

Assay [3] has as its target T2, PFKL (Homo sapiens, UniProt P17858).
T2 construct: made in house; host or cells: Sf9 insect cells (baculovirus, Bac-to-Bac)
T2 sequence (P17858 1-780): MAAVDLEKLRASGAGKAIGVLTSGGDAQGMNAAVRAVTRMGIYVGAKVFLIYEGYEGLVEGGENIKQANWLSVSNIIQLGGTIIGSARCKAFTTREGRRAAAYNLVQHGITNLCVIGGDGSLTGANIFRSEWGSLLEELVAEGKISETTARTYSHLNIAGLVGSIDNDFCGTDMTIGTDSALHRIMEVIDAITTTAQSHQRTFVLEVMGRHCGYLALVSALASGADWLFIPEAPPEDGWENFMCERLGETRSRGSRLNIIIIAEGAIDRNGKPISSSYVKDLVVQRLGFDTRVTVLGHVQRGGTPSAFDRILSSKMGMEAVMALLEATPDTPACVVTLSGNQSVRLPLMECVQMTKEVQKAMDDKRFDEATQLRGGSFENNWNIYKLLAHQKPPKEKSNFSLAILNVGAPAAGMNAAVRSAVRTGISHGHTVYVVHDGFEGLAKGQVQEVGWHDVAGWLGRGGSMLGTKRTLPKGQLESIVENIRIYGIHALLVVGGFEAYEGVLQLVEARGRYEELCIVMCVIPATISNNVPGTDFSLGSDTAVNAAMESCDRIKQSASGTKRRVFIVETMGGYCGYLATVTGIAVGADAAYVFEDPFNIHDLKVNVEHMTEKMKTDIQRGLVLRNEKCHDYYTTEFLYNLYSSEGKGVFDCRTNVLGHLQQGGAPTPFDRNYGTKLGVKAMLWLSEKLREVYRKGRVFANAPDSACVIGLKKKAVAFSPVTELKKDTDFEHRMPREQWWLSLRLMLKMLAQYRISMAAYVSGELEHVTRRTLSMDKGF
Nature of the assay: Thermal inactivation assay of PFKL. The format is biochemical. To be noted: 35°C; 200 μM FBP, 200 nM NA-11. Here is the method:
Thermal inactivation assays were performed as previously described for PFKP, with modifications to account for the decreased stability of PFKL ([Sánchez-Martínez et al., 2000]). PFKL was diluted to 10 ng/mL, with a final buffer composition of 53.3 mM HEPES, 100 mM KCl, 0.167 mM DTT, 83.3 μM ammonium sulfate, 0.83% glycerol, 0.170 mM ATP, and 16.7 mM EDTA. Samples were incubated at 35°C. At the times indicated, samples were removed and residual PFK1 activity measured using the PK/LDH auxiliary enzyme assay described above with 125 μM ATP and 5 mM F6P. To determine if small molecule ligands altered PFKL stability, 200 μM FBP and 200 nM NA-11 were added.

T1 sequence (P43490 whole entry, species assumed): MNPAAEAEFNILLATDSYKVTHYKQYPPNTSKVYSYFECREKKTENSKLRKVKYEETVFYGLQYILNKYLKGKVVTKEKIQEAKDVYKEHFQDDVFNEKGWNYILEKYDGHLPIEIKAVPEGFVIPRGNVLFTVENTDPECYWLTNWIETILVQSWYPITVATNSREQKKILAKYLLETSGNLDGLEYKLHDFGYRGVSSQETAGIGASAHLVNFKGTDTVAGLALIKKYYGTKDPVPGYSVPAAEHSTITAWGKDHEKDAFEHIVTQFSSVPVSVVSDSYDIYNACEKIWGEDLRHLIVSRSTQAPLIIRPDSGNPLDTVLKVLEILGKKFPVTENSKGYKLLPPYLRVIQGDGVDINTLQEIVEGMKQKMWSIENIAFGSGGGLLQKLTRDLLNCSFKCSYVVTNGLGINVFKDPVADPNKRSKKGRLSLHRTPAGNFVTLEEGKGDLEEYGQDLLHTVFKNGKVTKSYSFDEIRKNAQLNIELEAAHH

With `CC(=O)Nc1ccc2c(c1)OCc1cc(-c3ccccc3C#CCCCO)nn1C2` [NA-11], the “activity of recombinant NAMPT” value in assay [1] is reported as “did not affect the activity of recombinant NAMPT”. In addition, in assay [2], the “protection of epithelial layer from neutrophil-induced oxidative damage” value was “protected the epithelial layer”. The “protection of PFKL from thermal inactivation” value in assay [3] is “did not”.
